Test results: paper PMC6466596, “New Chloramphenicol Derivatives from the Viewpoint of Anticancer and Antimicrobial Activity” (Antibiotics, 2019)
Where two headings read alike, the source gives them in different places.

What was measured:
Staphylococcus aureus = assay: In vivo antibacterial activity (growth inhibition in LB culture, OD560); format: cell-based; conditions: read-out: EC50 Staphylococcus aureus
Method: (§1) The in vivo antibacterial activity of the conjugates was determined using the following three bacterial strains: wild-type Escherichia coli K12 (E. coli K12), Escherichia coli ΔTolC mutant strain (E. coli ΔTolC) lacking the TolC protein, which is involved in the efflux pumps operation, and wild-type Staphylococcus aureus (S. aureus). The anti-tumor activity of the conjugates was assessed using the human ZL34 and MeT5A cell lines, which were kindly offered by Professor G. Stathopoulos (University of Patras). ZL34 are cancer cells, derived from malignant pleural mesothelioma, while MeT5A are immortalized cells, which originate from healthy mesothelial tissue.
(§2) For the experimental procedures, the bacteria were cultured in luria broth (LB) medium (tryptone 10 g/L, yeast extract 5 g/L, NaCl 10 g/L) as previously described. The bacteria cultures were grown in the presence of CAM or each conjugate at increasing concentration (1–100 μM). The cultures were incubated at 37 °C until the absorbance (OD560) of the reference culture in the absence of antibiotic reached the value of 0.7. At this point, the growth of the cultures was terminated by placing them in an ice bath, and the measurement of the optical density followed. These measurements were used to calculate the half-maximal effective concentration (EC50) values.

Escherichia coli K12 = assay: as above; format: cell-based; conditions: K12, read-out: EC50 Escherichia coli K12
Method: as §1, §2

Escherichia coli ΔTolC = assay: as above; format: cell-based; conditions: read-out: EC50 Escherichia coli ΔTolC
Method: as §1, §2

[1] = test system: mitochondrial cytochrome c oxidase subunit II (COX2) in Met5A cells; assay: Immunoblotting of COX2 (mitochondrial protein synthesis); format: cell-based, human; conditions: 60 μΜ, 48 h; compared to ZL34; result in words
Method: (§3) Cell lysates were prepared after treatment with 60 μΜ of conjugates for 48 h. Total cellular proteins were isolated at 4 °C using RIPA buffer (ABCAM) and mixed with 4% SDS-containing loading buffer. Protein concentrations were determined using Bradford assay. Lysates ([…]) were reduced in Laemmli buffer containing 1 mM dithiothreitol, resolved by 10% SDS-PAGE and electrotransfered to Immobilon-P PVDF membranes (Millipore, Massachusetts, USA) according to standard procedures. Blots were incubated at 4 °C overnight with rabbit monoclonal antibody against mitochondrial cytochrome c oxidase subunit II (COX2) (anti-mtCO2 antibody, ABCAM) at a 1:1000 dilution in blocking buffer. After washing with TBS-Tween and incubation with secondary antibody coupled to horse radish peroxidase, protein bands were visualized with ECL^TM chemiluminescence reagent (Amersham) and detected by autoradiography. The intensity of bands was quantified by Image Analysis, using the Image-Pro Plus 7 software (Media Cybernetics). Blots were re-probed with a mouse anti-actin antibody (Santa Cruz Biotechnology) to verify equal protein loading.

[2] = test system: mitochondrial cytochrome c oxidase subunit II (COX2) in ZL34 cells; assay: as above; format: cell-based, human; conditions: 60 μΜ, 48 h; normalized to actin; result in words
Method: as §3

E. coli 70S ribosome = assay: Competition with [14C]-chloramphenicol for binding to the ribosome (filter binding); conditions: calculated from IC50 by Cheng–Prusoff; [14C]-CAM constant at 10 μM; read-out: Ki (binding affinity constant)
Method: Reassociated 70S ribosomes were prepared from E. coli K12 cells as described previously. 70S ribosomes were incubated in buffer A (100 mM Tris-HCl pH 7.2, 100 mM ammonium acetate, 10 mM magnesium acetate, 6 mM β-mercaptoethanol) with 10 μΜ [^14C]-chloramphenicol (150 dpm/pmol) at a final concentration of 0.20 μM [23]. After incubation for 10 min at 37 °C, the mixture was diluted with 3 mL of cold buffer A and filtered through a 25-mm diameter cellulose nitrate membrane filter (Millipore 0.45 μm pore size). The filter was washed three times with 3 mL of cold buffer A and the radioactivity which remained bound on the filter was measured. The binding of [^14C]-chloramphenicol was studied in competition with CAM or PA–CAM conjugates by keeping the concentration of [^14C]-CAM constant (10 μM) and increasing the concentration of non-radioactive conjugates.
To clarify whether the new PA–CAM conjugates maintain their binding site on the 70S bacterial ribosome, we carried out competition experiments. […] The affinity constants, Ki, were calculated using the following Cheng–Prusoff relationship (1) and their values are presented in Table 3. According to the values of Table 3, the decrease of the affinity for 70S ribosome follows the order 3>7>4>6>CAM>5. (1) Ki=IC50/1+[I]/KD where [I] is the concentration of [^14C]-CAM (constant at 10 μM) and KD is the dissociation constant of ribosome–chloramphenicol complex formation.

ZL34 cells = assay: Quantification of intracellular levels of conjugates and polyamines by RP-HPLC-DAD; format: cell-based, human; conditions: ZL34 cells treated with 60 μΜ of compound; for Intracellular compound concentration: mean ± SD, three repetitions
Method: (§4) PAs and conjugates 3 and 4 in ZL34 and Met5A cells were determined by reverse phase high-performance liquid chromatography (RP-HPLC-DAD), as described previously. Briefly, 100 mg cells (wet weight), either ZL34 or Met5A, which were grown in the presence of 60 μΜ of conjugates, were washed and then homogenized in 0.6 M HClO4. Cultures grown in the absence of the conjugates were used as reference. In the isolates, hexamethylenediamine dihydrochloride was added as an internal standard, followed by dansylation and subsequent extraction by toluene. The extracts were dried, reconstituted in acetonitrile/10 mM phosphate buffer pH 4.4 (45:55 v/v) and filtered through a 0.2-μm membrane (Spartan 13/0.2 RC Whatman GmbH, Dassel, Germany) prior to HPLC analysis. The HPLC system included a Varian Star 9010 solvent delivery system with a 250 × 4.6 mm Luna 5 μm C18(2) 100 A column (Phenomenex Co., USA) and a photodiode array detector (Shimadzu SPDM20A).
(§5) The flow rate was set at 1.0 mL/min. Polyamines were quantified at 258 nm and the conjugates at 275 nm. The detection limits for PUT, SPD, and SPM were 52 pmol, 18 pmol, and 36 pmol at 258 nm, respectively. The detection limits for compounds 3 and 4 were 25 pmol and 30 pmol at 275 nm, respectively. All experiments were run in triplicate. The coefficients of variation (C.V.) of the intra-assays were 5–7%, while those of the inter-assays ranged from 13 to 17%. LC Solution Software (Shimadzu) was used for data processing and the results were expressed as nmol/mg protein.

Met5A cells = assay: as above; format: cell-based, human; conditions: Met5A cells treated with 60 μΜ of compound; for Intracellular compound concentration: mean ± SD, three repetitions
Method: as §4, §5

ZL34 mesothelioma cells = format: cell-based, human
Method: as §1
(§6) The antitumor activity of the conjugates was assessed using the human ZL34 and MeT5A cell lines as previously described. ZL34 and Met5A cells were plated in sterile 6-well microtiter plates and grown in Dulbecco’s modified Eagle’s medium (DMEM), supplemented with 10% heat-inactivated fetal bovine serum and 1% penicillin/streptomycin. Cultures were maintained in a humidified atmosphere with 5% CO2 at 37 °C. Compounds 3 and 4 were added at final concentrations of 30 and 60 μΜ, and then cells were grown for 24, 72 and 96 h. In parallel, solutions of conjugates combined with a ten-fold concentration of SPD were incubated under the same conditions. After treatment, the drug was removed by washing the cells twice with phosphate-buffered saline (PBS). The cells were then trypsinized (0.5 mL trypsin-EDTA×1 solution/well, 5 min at 37 °C), mixed with 1 mL DMEM and collected by centrifugation at 3000 × g for 5 min. Cell viabilities were determined by the trypan blue exclusion assay, using a TC10 automated cell counter (BIORAD). Viable cells were expressed as a percentage of total cells.

[3] = test system: Met5A mesothelial immortalized cells; format: cell-based, human
Method: as §1, §6

[4] = wild-type strain, mean ± SD, three independent experiments

Row | Structure (SMILES) | EC50 (Staphylococcus aureus; [4]) | EC50 (Escherichia coli K12) | EC50 (Escherichia coli ΔTolC) | COX2 levels in Met5A cells [1] | COX2 expression in tumor cells (ZL34) [2] | Ki (E. coli 70S ribosome) | PUT intracellular level (ZL34 cells) | SPD intracellular level (ZL34 cells) | SPM intracellular level (ZL34 cells) | Intracellular compound concentration (ZL34 cells) | PUT intracellular level (Met5A cells) | SPD intracellular level (Met5A cells) | SPM intracellular level (Met5A cells) | Intracellular compound concentration (Met5A cells) | Cytotoxicity / antiproliferative activity on ZL34 cancer cells (ZL34 mesothelioma cells) | EC50 (Staphylococcus aureus) | Cytotoxicity on immortalized Met5A cells [3]
1 | NCCCN(CCCCN(Cc1ccccc1)Cc1ccccc1)C(=O)CCC(=O)N[C@H](CO)[C@H](O)c1ccc([N+](=O)[O-])cc1 [Compound 3] | 6.8 ± 0.5 µM | 11 ± 0.9 µM | 8.9 ± 0.7 µM | affected to a lesser extent | significant decrease | 0.8 ± 0.1 µM | 1.58 ± 0.13 nmol/mg Protein | 4.18 ± 1.87 ^1 nmol/mg Protein | 2.71 ± 1.17 ^2 nmol/mg Protein | 5.96 ± 0.92 μΜ | 7.38 ± 1.93 nmol/mg Protein | 7.38 ± 1.85 nmol/mg Protein | 22.50 ± 3.11 nmol/mg Protein | 3.75 ± 0.60 μΜ | – | – | –
2 | O=C(CCC(=O)N[C@H](CO)[C@H](O)c1ccc([N+](=O)[O-])cc1)NCCCCN(Cc1ccccc1)Cc1ccccc1 [Compound 5] | > 200 µM | > 200 µM | > 200 µM | – | – | 2.6 ± 0.3 µM | – | – | – | – | – | – | – | – | did not show any important antiproliferative activity | – | –
3 | O=C(N[C@H](CO)[C@H](O)c1ccc([N+](=O)[O-])cc1)C(Cl)Cl [CAM, Chloramphenicol] | – | 6.2 ± 0.5 µM | 2.3 ± 0.6 µM | – | – | 1.5 ± 0.1 µM | – | – | – | – | – | – | – | – | – | 3.4 ± 0.3 µM | –
4 | O=C(CCC(=O)N[C@H](CO)[C@H](O)c1ccc([N+](=O)[O-])cc1)NCCCCCCN(Cc1ccccc1)Cc1ccccc1 [Compound 6] | > 200 µM | > 200 µM | > 200 µM | – | – | 1.3 ± 0.2 µM | – | – | – | – | – | – | – | – | did not show any important antiproliferative activity | – | –
5 | O=C(CCC(=O)N[C@H](CO)[C@H](O)c1ccc([N+](=O)[O-])cc1)NCCCN(Cc1ccccc1)Cc1ccccc1 [Compound 7] | > 200 µM | > 200 µM | > 200 µM | – | – | 1 ± 0.1 µM | – | – | – | – | – | – | – | – | did not show any important antiproliferative activity | – | –
6 | O=C(CCC(=O)N(CCCCN(Cc1ccccc1)Cc1ccccc1)CCCN(Cc1ccccc1)Cc1ccccc1)N[C@H](CO)[C@H](O)c1ccc([N+](=O)[O-])cc1 [Compound 4] | > 200 µM | > 200 µM | > 200 µM | affected to a lesser extent | significant decrease | 1.1 ± 0.1 µM | 2.07 ± 0.91 nmol/mg Protein | 5.36 ± 2.15 ^1 nmol/mg Protein | 3.17 ± 1.70 ^2 nmol/mg Protein | 29.00 ± 2.53 μΜ | 5.60 ± 1.10 nmol/mg Protein | 8.14 ± 2.16 nmol/mg Protein | 25.80 ± 6.57 nmol/mg Protein | 7.40 ± 0.80 μΜ | demonstrated cytotoxicity | – | milder action
